From patent US9844546B2, “Antibody against human HIF hydroxylase” (OXFORD UNIVERSITY INNOVATION LIMITED, priority 2001, dated 2017) come the findings set out here.

The subject of the assay is cytoplasmic extract-dependent modification of the 5′ VHL E3 target site. The assay can be described thus: Peptide competition of cytoplasmic extract-dependent modification of GAL-HIF-1α 344-553, in vitro VHL E3 ubiquitylation. It is filed as biochemical, human. To be noted: 12.5 μM peptide, RCC4 cytoplasmic extract. Here is the method:
The E1 activating enzyme used in ubiquitylation assays was either obtained from Affiniti Research (Exeter, UK) or purified from BL21 (DE3) E. coli transfected with plasmid expressing His6-tagged mouse E1. His6-E1 was purified by Ni^2+-agarose affinity chromatography. After dialysis against phosphate buffered saline, glycerol was added to 10% (vol/vol) and 25 ng/μl aliquots stored at −80° C. Human CDC34 recombinant E2 enzyme was from Affiniti Research (Exeter, UK). VHL E3 was obtained by anti-HA immunoprecipitation from stably transfected 7860-VHLHA cell lysates (Iliopoulos et al). GAL-HIF-1α substrate was prepared by anti-GAL immunoprecipitation from [^35S] methionine-labeled TnT rabbit reticulocyte (Promega) translates. Each 40 μl ubiquitylation reaction consisted of 4 μl of 5 mg/ml ubiquitin, 4 μl of 10×ATP regenerating system (20 mM Tris pH7.5, 10 mM ATP, 10 mM magnesium acetate, 300 mM creatine phosphate, 0.5 mg/ml creatine phosphokinase), 2 μl, E1, 3 μl E2, 6 μl VHL E3 immunopurified on protein G sepharose, 6 μl GAL-HIF-1α substrate immunopurified on agarose beads. Reactions were incubated at 30° C. for 2 h with occasional mixing, stopped by the addition of SDS sample buffer and analysed by SDS-PAGE and autoradiography. Cytoplasmic extract-based ubiquitylation assays have been previously described (Cockman).
It has been shown above that the 3′ VHL E3 target site responds to oxygen level via hydroxylation at proline residue 564. This praline residue forms part of a potential motif conserved between the 5′ and 3′ target sites. Mutation of the corresponding proline residue (P402A) in the 5′ target site also results in functional inactivation. It was possible therefore that proline residue 402 was also a target for regulatory hydroxylation, To test this we asked whether polypeptides corresponding to the 3′ VHL E3 target site could interfere with the cytoplasmic extract-dependent modification of the 5′ VHL E3 target site. […]

“19:Pro564Hyp: polypeptide (HIF-1α residues 556-574) containing a trans-4-hydroxy-S-proline residue at position 564”: the “competition of cytoplasmic extract effect on VHL-dependent ubiquitylation of GAL 344-553” value was “unable to compete”.
For “19:WT: polypeptide comprising HIF-1α residues 556 to 574” the value was “completely ablate the cytoplasmic extract effect”.
